Measurements from ChEMBL document CHEMBL5465560, “Selectivity Literature for EUbOPEN Chemogenomic Library” (2024).

Assays:
[1] = target: Phosphatidylinositol 4-phosphate 5-kinase type-1 alpha (Homo sapiens) (UniProt Q99755); assay: Selectivity interaction (KinomeScan (DiscoverX)) EUB0000655a PIP5K1A; details: at 10 µM
[2] = target: Activin receptor type-2A (Homo sapiens) (UniProt P27037); assay: Selectivity interaction (KinomeScan (DiscoverX)) EUB0001079a ACVR2A; details: at 1 µM
[3] = target: Glycogen synthase kinase-3 alpha (Homo sapiens, UniProt P49840); assay: Selectivity interaction (Millipore kinase profiler) EUB0000124b GSK3A; details: at 10 µM
[4] = target: Serine/threonine-protein kinase Nek4 (Homo sapiens) (UniProt P51957); assay: Selectivity interaction (SelectScreen profiling (Invitrogen)) EUB0000607a NEK4; details: at 2 µM
SRSF protein kinase 1 = SRSF protein kinase 1 (Homo sapiens, UniProt Q96SB4); assay: Selectivity interaction (SelectScreen profiling (Invitrogen)) EUB0000607a SRPK1; details: at 2 µM
[5] = target: Glycogen synthase kinase-3 beta (Homo sapiens, UniProt P49841); assay: Selectivity interaction (KinomeScan (DiscoverX)) EUB0000595a GSK3B; details: at 10 µM
[6] = target: LIM domain kinase 2 (Homo sapiens) (UniProt P53671); details: at 10 µM
[7] = target: T1, Serine/threonine-protein kinase TBK1 (Homo sapiens) (UniProt Q9UHD2); details: at 10 µM
T1 sequence (whole entry): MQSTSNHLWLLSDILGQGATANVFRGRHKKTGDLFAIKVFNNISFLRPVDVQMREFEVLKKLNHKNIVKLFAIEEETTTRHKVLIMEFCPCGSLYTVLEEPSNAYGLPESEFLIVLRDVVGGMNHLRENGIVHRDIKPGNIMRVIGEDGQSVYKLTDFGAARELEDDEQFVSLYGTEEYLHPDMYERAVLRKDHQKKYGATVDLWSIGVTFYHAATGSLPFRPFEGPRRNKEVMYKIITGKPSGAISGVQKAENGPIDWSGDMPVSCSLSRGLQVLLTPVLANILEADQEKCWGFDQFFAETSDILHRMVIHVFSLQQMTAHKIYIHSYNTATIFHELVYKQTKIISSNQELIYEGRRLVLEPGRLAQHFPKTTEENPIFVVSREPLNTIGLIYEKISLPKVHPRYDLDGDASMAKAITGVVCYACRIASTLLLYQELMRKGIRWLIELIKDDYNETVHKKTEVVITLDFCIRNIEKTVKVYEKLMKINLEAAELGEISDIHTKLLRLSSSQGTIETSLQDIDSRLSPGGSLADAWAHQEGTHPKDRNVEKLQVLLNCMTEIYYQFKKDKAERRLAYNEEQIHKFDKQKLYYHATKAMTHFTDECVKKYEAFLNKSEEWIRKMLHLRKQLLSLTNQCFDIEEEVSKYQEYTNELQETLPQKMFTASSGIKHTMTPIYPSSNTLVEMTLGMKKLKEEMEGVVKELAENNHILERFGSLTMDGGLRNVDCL

[8] = target: T2, Inhibitor of nuclear factor kappa-B kinase subunit alpha (Homo sapiens) (UniProt O15111); assay: Selectivity interaction (KinomeScan (DiscoverX)) EUB0001049a CHUK; details: at 1 µM
T2 sequence (whole entry): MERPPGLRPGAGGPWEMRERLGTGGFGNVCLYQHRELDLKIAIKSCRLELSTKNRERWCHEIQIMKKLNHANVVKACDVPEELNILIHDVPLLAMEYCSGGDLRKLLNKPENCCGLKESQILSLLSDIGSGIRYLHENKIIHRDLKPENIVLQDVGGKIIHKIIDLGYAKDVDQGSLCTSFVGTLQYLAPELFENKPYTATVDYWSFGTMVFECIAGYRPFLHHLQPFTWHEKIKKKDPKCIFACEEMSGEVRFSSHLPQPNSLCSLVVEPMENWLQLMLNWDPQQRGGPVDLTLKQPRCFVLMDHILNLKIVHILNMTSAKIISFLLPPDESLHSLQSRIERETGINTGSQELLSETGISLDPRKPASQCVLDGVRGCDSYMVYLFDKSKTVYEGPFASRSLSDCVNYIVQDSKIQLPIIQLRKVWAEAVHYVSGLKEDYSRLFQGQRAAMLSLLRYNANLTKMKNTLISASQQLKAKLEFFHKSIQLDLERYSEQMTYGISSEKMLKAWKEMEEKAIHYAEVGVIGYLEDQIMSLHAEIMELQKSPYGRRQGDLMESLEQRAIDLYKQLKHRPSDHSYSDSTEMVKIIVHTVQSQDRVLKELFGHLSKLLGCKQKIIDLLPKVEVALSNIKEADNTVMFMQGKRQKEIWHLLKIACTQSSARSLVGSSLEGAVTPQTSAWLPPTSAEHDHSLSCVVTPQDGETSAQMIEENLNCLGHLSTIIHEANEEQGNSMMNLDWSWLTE

[9] = target: Fibroblast growth factor receptor 2 (Homo sapiens) (UniProt P21802); assay: Selectivity interaction (KinomeScan (DiscoverX)) EUB0001049a FGFR2; details: at 1 µM
[10] = target: Tyrosine-protein kinase Srms (Homo sapiens) (UniProt Q9H3Y6); assay: Selectivity interaction (KinomeScan (DiscoverX)) EUB0000666a SRMS; details: at 10 µM
[11] = target: RAF proto-oncogene serine/threonine-protein kinase (Homo sapiens) (UniProt P04049); assay: Selectivity interaction (KinomeScan (DiscoverX)) EUB0000092b RAF1; details: at 10 µM
[12] = target: T3, Hormonally up-regulated neu tumor-associated kinase (Homo sapiens) (UniProt P57058); assay: Selectivity interaction (KinomeScan (DiscoverX)) EUB0000695a HUNK; details: at 100 nM
T3 sequence (whole entry): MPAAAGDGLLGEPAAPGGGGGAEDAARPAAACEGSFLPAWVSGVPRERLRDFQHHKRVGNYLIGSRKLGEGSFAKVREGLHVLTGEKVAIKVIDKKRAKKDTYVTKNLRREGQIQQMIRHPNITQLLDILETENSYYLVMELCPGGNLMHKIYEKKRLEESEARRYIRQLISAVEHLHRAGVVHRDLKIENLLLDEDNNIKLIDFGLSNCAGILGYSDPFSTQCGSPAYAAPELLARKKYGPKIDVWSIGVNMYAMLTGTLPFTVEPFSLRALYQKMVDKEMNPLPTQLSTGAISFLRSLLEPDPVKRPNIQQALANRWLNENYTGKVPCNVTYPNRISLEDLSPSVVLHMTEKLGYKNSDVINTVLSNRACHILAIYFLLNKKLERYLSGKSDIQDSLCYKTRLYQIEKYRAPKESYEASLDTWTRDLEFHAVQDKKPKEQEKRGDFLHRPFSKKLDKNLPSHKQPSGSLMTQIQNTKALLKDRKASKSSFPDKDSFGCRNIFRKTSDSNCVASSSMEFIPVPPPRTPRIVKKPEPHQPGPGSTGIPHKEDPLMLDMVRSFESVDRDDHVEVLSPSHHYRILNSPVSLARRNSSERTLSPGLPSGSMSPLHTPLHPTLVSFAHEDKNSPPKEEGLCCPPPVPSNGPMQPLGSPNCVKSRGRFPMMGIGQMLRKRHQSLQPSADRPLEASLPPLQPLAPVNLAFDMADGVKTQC

RAF proto-oncogene serine/threonine-protein kinase (Homo sapiens), sequence (P04049 whole entry): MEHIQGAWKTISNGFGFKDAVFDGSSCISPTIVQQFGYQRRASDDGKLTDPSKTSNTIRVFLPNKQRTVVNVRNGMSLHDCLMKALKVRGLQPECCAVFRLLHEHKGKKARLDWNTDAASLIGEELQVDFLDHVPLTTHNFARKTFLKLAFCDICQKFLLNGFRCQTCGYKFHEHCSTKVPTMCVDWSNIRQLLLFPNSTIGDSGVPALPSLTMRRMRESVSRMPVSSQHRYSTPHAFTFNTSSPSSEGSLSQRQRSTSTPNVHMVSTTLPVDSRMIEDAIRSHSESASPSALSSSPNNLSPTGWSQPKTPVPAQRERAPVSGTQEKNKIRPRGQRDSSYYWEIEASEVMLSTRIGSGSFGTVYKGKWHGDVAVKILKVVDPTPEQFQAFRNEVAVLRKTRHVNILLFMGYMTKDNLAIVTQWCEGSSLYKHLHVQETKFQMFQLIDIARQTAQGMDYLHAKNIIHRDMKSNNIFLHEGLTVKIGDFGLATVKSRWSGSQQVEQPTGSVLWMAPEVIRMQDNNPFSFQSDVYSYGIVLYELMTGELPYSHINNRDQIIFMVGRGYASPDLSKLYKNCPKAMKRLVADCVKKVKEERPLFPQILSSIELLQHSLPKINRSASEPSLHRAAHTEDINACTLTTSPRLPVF
Phosphatidylinositol 4-phosphate 5-kinase type-1 alpha (Homo sapiens), sequence (Q99755 whole entry): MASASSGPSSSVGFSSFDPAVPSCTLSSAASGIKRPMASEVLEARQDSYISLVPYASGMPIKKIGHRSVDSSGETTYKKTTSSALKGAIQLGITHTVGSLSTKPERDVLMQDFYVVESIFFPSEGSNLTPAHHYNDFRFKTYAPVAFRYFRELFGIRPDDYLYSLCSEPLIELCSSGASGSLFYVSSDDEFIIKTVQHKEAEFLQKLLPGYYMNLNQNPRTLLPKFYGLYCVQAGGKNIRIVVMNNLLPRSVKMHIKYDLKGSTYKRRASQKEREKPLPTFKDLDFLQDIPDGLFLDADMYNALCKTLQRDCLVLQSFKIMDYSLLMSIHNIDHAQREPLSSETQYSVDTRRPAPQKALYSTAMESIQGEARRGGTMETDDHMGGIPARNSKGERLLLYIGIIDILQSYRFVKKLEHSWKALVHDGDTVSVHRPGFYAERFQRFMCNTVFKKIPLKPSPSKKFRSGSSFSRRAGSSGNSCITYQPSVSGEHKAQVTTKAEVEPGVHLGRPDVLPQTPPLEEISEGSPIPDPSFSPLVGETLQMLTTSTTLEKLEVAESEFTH
Activin receptor type-2A (Homo sapiens), sequence (P27037 whole entry): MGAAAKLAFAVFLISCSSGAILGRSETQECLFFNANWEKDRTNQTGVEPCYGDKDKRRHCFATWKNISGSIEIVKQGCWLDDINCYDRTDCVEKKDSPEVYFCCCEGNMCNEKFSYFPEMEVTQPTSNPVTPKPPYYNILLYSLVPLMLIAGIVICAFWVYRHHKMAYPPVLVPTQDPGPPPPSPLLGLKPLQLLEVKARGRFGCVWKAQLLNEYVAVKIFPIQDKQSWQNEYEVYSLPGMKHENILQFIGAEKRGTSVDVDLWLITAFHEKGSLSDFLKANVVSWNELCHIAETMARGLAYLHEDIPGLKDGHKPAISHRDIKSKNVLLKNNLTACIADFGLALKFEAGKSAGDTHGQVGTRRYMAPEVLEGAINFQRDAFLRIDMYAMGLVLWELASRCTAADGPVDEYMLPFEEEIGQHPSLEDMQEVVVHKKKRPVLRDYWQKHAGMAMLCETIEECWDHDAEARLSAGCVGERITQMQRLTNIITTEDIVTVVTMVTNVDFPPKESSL
Fibroblast growth factor receptor 2 (Homo sapiens), sequence (P21802 22-821 limits assumed): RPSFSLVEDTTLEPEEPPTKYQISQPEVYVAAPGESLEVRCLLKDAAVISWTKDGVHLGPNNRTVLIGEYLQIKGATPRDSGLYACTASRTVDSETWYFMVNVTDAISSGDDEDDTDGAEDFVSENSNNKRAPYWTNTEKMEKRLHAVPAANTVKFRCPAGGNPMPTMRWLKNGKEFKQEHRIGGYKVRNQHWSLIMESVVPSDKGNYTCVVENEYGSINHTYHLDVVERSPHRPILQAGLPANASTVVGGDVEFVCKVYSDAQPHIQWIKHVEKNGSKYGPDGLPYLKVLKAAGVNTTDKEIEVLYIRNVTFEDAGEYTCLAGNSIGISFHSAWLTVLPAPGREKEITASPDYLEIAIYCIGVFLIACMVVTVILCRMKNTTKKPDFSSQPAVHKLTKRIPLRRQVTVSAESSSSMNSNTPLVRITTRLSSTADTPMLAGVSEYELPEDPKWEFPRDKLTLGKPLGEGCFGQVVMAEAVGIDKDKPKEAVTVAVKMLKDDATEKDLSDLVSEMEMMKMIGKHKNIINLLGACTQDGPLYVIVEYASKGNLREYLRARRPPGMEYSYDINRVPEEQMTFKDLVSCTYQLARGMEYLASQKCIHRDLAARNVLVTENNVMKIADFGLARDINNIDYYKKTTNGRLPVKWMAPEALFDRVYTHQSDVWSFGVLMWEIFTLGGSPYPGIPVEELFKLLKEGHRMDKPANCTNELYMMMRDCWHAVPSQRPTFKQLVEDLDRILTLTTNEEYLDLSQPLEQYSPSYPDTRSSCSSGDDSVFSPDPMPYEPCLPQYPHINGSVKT
Serine/threonine-protein kinase Nek4 (Homo sapiens), sequence (P51957 whole entry, looked up): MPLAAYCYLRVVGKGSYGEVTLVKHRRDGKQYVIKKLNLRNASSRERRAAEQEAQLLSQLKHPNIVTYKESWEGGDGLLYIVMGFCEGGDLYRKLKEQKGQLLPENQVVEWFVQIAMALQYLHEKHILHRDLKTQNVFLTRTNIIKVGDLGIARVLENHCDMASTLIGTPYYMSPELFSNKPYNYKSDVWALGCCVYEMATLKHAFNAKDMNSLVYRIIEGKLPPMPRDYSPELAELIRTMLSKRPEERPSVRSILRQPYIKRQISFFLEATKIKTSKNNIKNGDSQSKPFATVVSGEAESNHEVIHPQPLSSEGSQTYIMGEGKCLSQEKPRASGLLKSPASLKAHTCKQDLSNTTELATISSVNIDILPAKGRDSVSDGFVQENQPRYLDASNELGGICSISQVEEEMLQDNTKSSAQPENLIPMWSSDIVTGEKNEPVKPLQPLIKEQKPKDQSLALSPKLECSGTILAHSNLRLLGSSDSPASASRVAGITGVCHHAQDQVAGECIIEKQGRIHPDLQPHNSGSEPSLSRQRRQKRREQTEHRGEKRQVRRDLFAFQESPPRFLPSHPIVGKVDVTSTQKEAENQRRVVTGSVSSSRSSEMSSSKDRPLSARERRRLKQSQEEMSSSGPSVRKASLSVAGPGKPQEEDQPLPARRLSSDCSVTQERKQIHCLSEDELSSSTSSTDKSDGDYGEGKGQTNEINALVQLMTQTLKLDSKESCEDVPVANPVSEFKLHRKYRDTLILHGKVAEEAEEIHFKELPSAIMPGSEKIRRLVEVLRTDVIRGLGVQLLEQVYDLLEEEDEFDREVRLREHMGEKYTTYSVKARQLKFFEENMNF
Glycogen synthase kinase-3 alpha, sequence (P49840 2-483 limits assumed): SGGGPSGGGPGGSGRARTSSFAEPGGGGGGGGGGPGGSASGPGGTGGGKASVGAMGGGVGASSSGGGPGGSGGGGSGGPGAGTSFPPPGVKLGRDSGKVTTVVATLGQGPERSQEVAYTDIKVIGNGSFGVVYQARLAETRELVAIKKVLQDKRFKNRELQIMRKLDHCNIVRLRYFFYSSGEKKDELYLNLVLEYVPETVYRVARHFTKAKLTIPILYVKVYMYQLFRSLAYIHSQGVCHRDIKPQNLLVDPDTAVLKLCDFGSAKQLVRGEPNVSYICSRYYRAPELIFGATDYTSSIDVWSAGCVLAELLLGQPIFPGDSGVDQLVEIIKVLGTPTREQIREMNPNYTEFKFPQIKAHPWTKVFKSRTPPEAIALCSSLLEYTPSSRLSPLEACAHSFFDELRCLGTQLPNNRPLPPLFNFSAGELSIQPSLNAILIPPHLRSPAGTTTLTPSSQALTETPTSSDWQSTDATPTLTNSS
Glycogen synthase kinase-3 beta, sequence (P49841 whole entry, looked up, the tested form may be a part): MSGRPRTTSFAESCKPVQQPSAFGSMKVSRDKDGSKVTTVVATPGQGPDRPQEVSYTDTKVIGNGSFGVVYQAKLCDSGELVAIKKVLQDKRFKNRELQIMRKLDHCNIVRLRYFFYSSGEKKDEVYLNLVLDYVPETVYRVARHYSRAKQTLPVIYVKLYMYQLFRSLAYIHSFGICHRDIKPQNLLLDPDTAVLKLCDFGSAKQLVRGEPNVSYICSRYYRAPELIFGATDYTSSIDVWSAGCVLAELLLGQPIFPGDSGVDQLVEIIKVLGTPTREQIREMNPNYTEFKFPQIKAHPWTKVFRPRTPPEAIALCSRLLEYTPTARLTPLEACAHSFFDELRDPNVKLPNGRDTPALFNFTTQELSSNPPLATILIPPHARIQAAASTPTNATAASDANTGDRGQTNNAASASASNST
LIM domain kinase 2 (Homo sapiens), sequence (P53671 whole entry, looked up, the tested form may be a part): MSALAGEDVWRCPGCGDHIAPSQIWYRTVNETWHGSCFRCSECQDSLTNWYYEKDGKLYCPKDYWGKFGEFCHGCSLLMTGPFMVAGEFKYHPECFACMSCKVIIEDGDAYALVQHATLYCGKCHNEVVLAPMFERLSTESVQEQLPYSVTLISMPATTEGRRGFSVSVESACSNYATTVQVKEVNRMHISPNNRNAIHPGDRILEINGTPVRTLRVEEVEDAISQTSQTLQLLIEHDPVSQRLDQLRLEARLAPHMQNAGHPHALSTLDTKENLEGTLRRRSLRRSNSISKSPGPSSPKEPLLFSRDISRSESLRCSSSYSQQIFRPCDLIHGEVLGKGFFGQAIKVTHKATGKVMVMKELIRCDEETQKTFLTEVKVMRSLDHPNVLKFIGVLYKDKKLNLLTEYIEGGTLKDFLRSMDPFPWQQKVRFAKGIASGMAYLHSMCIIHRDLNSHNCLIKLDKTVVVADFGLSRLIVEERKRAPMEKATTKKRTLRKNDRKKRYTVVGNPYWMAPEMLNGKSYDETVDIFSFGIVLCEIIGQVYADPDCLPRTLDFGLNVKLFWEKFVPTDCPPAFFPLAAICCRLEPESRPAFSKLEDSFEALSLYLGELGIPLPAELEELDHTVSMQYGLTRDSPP

CN(C)CCOc1ccc(-c2nc(-c3ccncc3)c(-c3ccc4c(c3)CC/C4=N\O)[nH]2)cc1
% of control [1]: 100%

Nc1cnc(N2CCc3cc(S(=O)(=O)Nc4c(F)cc(Cl)cc4F)cc(N4CCCC4=O)c32)nc1 [TP-020n]
% of control [2]: 67%

CC(=O)Nc1cccc(-n2c(=O)n(C3CC3)c(=O)c3c(Nc4ccc(I)cc4F)n(C)c(=O)c(C)c32)c1
% of control [3]: 99%

CNC(=O)Nc1ccc(-c2nc(N3CC4CCC(C3)O4)c3cnn(C4CCC5(CC4)OCCO5)c3n2)cc1
% of inhibition [4]: 7% | % of inhibition (SRSF protein kinase 1): 2%

COCC(=O)NC/C=C/c1ccc2ncnc(Nc3ccc(Oc4ccc(C)nc4)c(C)c3)c2c1 [CP-724714]
% of control [5]: 68%

Cc1cc([C@@H](C)Nc2ccccc2C(=O)O)c2nc(N3CCOCC3)cc(=O)n2c1 [AZD-6482]
% of control [6]: 100% | % of control [7]: 100%

COc1cc(Nc2nc(C)cc(-c3cnn4nc(OC)ccc34)n2)cc(C(F)(F)F)c1
% of control [8]: 95% | % of control [9]: 90%

O=C(NOC[C@H](O)CO)c1ccc(F)c(F)c1Nc1ccc(I)cc1F
% of control [10]: 95%

CCC(=O)N1CCN(c2ccc(-n3c(=O)ccc4cnc5ccc(-c6cnc7ccccc7c6)cc5c43)cc2C(F)(F)F)CC1
% of control [11]: 48%

Cc1cc(F)c(C(=O)Nc2cccc(-c3nncn3C(C)C)n2)cc1-n1cnc(C2CC2)c1
% of control [12]: 100%
